Our source for the EC50 values is patent US9562033B2, “Inhibitors of viral replication, their process of preparation and their therapeutical uses” (LABORATOIRE BIODIM, priority 2012, dated 2017).

For the assay, the system named is NL4-3 strain of HIV-1. The assay can be described thus: HIV-1 replication inhibition: cyto-protection of MT4 cells infected with NL4-3 virus (CellTiter-Glo viability assay). In kind it is cell-based. As to conditions: Human immunodeficiency virus 1, NL43, 120 h, concentration leading to 50% of cyto-protection, 5 days incubation. On the procedure:
The antiviral activity, particularly against HIV, of compounds according to the invention is evaluated by the protocol described below.
Preparation of Virus Stock of the NL4-3 Strain of HIV-1
The virus was prepared as described in Lopez et al (Lopez et al, Proc Natl Acad Sci USA., 2006, 103(40):14947-52, by transfecting 2×10^6 293 T cells (CRL-1573, ATCC) with following modifications: 6 μg of NL4-3 proviral DNA molecular clone were mixed with Fugene 6 transfection reagent from Roche, and used according to manufacturer's instructions. Forty eight hours later, transfected cell supernatants were harvested, filtered through 0.45-μm-pore-size filters, quantified for HIV-1 p24 antigen by using a Innotest HIV antigen mAb assay (Ingen) according to manufacturer's instructions, and used in infection experiments.
Preparation of Compounds:
Serial dilutions of compounds to be tested were prepared in complete RPMI medium from 10 mM DMSO stock solutions, and distributed in a volume of 20 µl in 96 well Falcon 353072 Microtest™ tissue culture plate, in order to get 0.5% DMSO final concentration in each well, after the addition of infected cells. Control wells contained also 0.5% DMSO final concentration but no compound.
MT4 cells (from the NIH AIDS Research and Reference Reagent Program) in RPMI complete medium were counted (10×10^6 cells per well in Falcon 353047 Multiwell™ 24 well) and infected for 2 hours at 37°, at a multiplicity of infection (moi) of 0.0001-0.00001. Cells were then centrifuged 3 min at 3000 rpm, and washed two times in 1 ml PBS to remove viruses that have not entered in cells. Infected cells were resuspended in complete RPMI at 1.25×10^6 cells/ml, and 80 µl of infected cells were distributed in each well containing compounds to be tested or control wells. The plates were then incubated at 37° for 5 days.
Assay Used to Measure the Inhibition of HIV Replication by the Compounds
(according to Gregg S. Jones et al., Antimicrobial Agents and Chemotherapy, 2009, 53 (3): 1194-1203).
After 5 days of incubation, […] of CellTiter-Glo reagent (Promega Biosciences, Inc., Madison Wis., USA) were added to each well. Cell lysis was carried out at room temperature during 10 min, 150 μl of lysates were transferred in Packard Optiplate 96 well, and luminescence was read on a Fluoroskan (Thermo Scientific).
On the technique in general: In ATP-based viability assays light output follows the ATP content of the culture.
On to `Cc1sc(-c2ccccc2)c(-c2ccc3c(c2)CCCO3)c1C(OC(C)(C)C)C(=O)O` (stereo not shown) [Example 1, 2-(tert-butoxy)-2-[4-(3,4-dihydro-2H-1-benzopyran-6-yl)-2-methyl-5-phenylthiophen-3-yl]acetic acid], for which the EC50 (usually the concentration giving half of the maximal effect) stood at 260 nM.

Take `Cc1sc(-c2ccc(F)cc2)c(-c2ccc3c(c2)CCCO3)c1C(OC(C)(C)C)C(=O)O` (stereo not shown) [Example 2, 2-(tert-butoxy)-2-[4-(3,4-dihydro-2H-1-benzopyran-6-yl)-5-(4-fluorophenyl)-2-methylthiophen-3-yl]acetic acid]: the EC50 was 190 nM.

For `Cc1sc(-c2ccncc2)c(-c2ccc3c(c2)CCCO3)c1C(OC(C)(C)C)C(=O)O` (stereo not shown) [Example 3, 2-(tert-butoxy)-2-[4-(3,4-dihydro-2H-1-benzopyran-6-yl)-2-methyl-5-(pyridin-4-yl)thiophen-3-yl]acetic acid], the midpoint of the response, the EC50, lay at 100 nM.

`Cc1sc(-c2cnc3c(c2)CCCO3)c(-c2ccc3c(c2)CCCO3)c1C(OC(C)(C)C)C(=O)O` (stereo not shown) [Example 4, (tert-butoxy)[4-(3,4-dihydro-2H-1-benzopyran-6-yl)-2-methyl-5-{2H,3H,4H-pyrano[2,3-b]pyridin-6-yl}thiophen-3-yl]acetic acid] showed a half-maximal effective concentration (EC50) of 180 nM.

With `Cc1sc(-c2ccncc2)c(C2=CCC(C)(C)CC2)c1C(OC(C)(C)C)C(=O)O` (stereo not shown) [Example 5, 2-(tert-butoxy)-2-[4-(4,4-dimethylcyclohex-1-en-1-yl)-2-methyl-5-(pyridin-4-yl)thiophen-3-yl]acetic acid], the EC50 came to 41 nM.

`Cc1sc(-c2ccncc2)c(C2=CCC(C(C)C)CC2)c1C(OC(C)(C)C)C(=O)O` (stereo not shown) [Example 6, 2-(tert-butoxy)-2-{2-methyl-4-[4-(propan-2-yl)cyclohex-1-en-1-yl]-5-(pyridin-4-yl)thiophen-3-yl}acetic acid] had an EC50 of 160 nM.

`Cc1sc(-c2cnc3c(c2)CCCO3)c(C2=CCC(C)(C)CC2)c1C(OC(C)(C)C)C(=O)O` (stereo not shown) [Example 7] yielded an EC50 of 81 nM.

`Cc1sc(-c2cccnc2)c(-c2ccc3c(c2)CCCO3)c1C(OC(C)(C)C)C(=O)O` (stereo not shown) [Example 8, 2-(tert-butoxy)-2-[4-(3,4-dihydro-2H-1-benzopyran-6-yl)-2-methyl-5-(pyridin-3-yl)thiophen-3-yl)acetic acid] returned a 50% effective concentration (EC50) of 270 nM.

Consider `Cc1sc(-c2ccncc2)c(C2=CCC(C)CC2)c1C(OC(C)(C)C)C(=O)O` (stereo not shown) [Example 10, 2-(tert-butoxy)-2-[2-methyl-4-(4-methylcyclohex-1-en-1-yl)-5-(pyridin-4-yl)thiophen-3-yl]acetic acid], for which the half-maximal effective concentration (EC50) came to 140 nM.

`Cc1sc(-c2ccncc2)c(C2=CCC(C)(C)CC2)c1[C@H](OC(C)(C)C)C(=O)O` [Example 11, (2S)-2-(tert-butoxy)-2-[4-(4,4-dimethylcyclohex-1-en-1-yl)-2-methyl-5-(pyridin-4-yl)thiophen-3-yl]acetic acid] registered an EC50 of 32 nM.

With `Cc1sc(-c2ccncc2)c(C2=CCC3(CC2)CC3)c1C(OC(C)(C)C)C(=O)O` (stereo not shown) [Example 12, 2-(tert-butoxy)-2-[2-methyl-5-(pyridin-4-yl)-4-{spiro[2,5]oct-5-en-6-yl}thiophen-3-yl]acetic acid], the concentration for a half-maximal effect (EC50) was 130 nM.

Molecule `Cc1sc(-c2ccnc(F)c2)c(-c2ccc3c(c2)CCCO3)c1C(OC(C)(C)C)C(=O)O` (stereo not shown) [Example 13, 2-(tert-butoxy)-2-[4-(3,4-dihydro-2H-1-benzopyran-6-yl)-5-(2-fluoropyridin-4-yl)-2-methylthiophen-3-yl) acetic acid] gave a half-maximal effective concentration (EC50) of 150 nM.

Molecule `Cc1cc(-c2sc(C)c(C(OC(C)(C)C)C(=O)O)c2-c2ccc3c(c2)CCCO3)ccn1` (stereo not shown) [Example 14, 2-(tert-butoxy)-2-[4-(3,4-dihydro-2H-1-benzopyran-6-yl)-2-methyl-5-(2-methylpyridin-4-yl)thiophen-3-yl]acetic acid] showed an EC50 of 480 nM.
